Data reported in patent US20240092773A1, “DIHYDRO-CYCLOPENTA-ISOQUINOLINE SULFONAMIDES DERIVATIVES” (UCB Biopharma SRL, priority 2019, published 2024).

Molecular target: IgE-Tb binding to soluble IgE receptor FcεR1α (Y131A mutation) (Homo sapiens, UniProt P01854, N146Q/N252Q)
Test: In vitro FRET assay: inhibition of binding of IgE-Tb to receptor FcεR1α-Y131A-AF488
Conditions: read-out: FRET IC50 range

Sequence of IgE-Tb binding to soluble IgE receptor FcεR1α (Y131A mutation) (P01854 whole entry N146Q/N252Q, looked up): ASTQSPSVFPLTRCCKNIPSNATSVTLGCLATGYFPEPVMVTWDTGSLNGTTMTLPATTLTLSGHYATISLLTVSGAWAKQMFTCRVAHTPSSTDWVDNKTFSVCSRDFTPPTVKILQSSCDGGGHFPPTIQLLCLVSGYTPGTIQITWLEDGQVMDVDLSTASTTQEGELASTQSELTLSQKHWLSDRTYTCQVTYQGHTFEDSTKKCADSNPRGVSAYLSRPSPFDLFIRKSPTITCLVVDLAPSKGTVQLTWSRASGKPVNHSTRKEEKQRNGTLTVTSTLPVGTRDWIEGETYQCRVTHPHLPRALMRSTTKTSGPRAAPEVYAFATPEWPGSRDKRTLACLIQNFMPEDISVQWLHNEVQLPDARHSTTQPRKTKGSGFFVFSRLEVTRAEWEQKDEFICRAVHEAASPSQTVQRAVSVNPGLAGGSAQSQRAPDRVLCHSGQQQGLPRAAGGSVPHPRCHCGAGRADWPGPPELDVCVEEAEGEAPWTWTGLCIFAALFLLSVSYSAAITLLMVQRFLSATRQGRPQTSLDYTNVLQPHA

Row | SMILES | IC50
1 | Cn1cc(C#N)c(NC2CCc3cc(S(=O)(=O)NCC(C)(C)F)c4cc(C5CC5)ncc4c32)n1 (stereo not drawn) [Example 67, 9-[(4-cyano-1-methylpyrazol-3-yl)amino]-3-cyclopropyl-N-(2-fluoro-2-methylpropyl)-8,9-dihydro-7H-cyclopenta[h]isoquinoline-5-sulfonamide] | 0.1 to 2 µM
2 | CC(C)CNS(=O)(=O)c1cc2c(c3cnc(C4CC4)cc13)CCC2O (stereo not drawn) [Example 47, 3-cyclopropyl-7-hydroxy-N-(2-methylpropyl)-8,9-dihydro-7H-cyclopenta[h]isoquinoline-5-sulfonamide] | 0.1 to 2 µM
3 | CC(C)CNS(=O)(=O)c1cc2c(c3cnc(C4CC4)cc13)C(NCc1cccnc1)CC2 (stereo not drawn) [Example 14, 3-cyclopropyl-N-(2-methylpropyl)-9-(pyridin-3-ylmethylamino)-8,9-dihydro-7H-cyclopenta[h]isoquinoline-5-sulfonamide] | 0.1 to 2 µM
4 | CC(C)CNS(=O)(=O)c1cc2c(c3cnc(C4CC4)cc13)C(NC(=O)OCc1ccccc1)CC2 (stereo not drawn) [Example 44, benzyl N-[3-cyclopropyl-5-(2-methylpropylsulfamoyl)-8,9-dihydro-7H-cyclopenta[h]isoquinolin-9-yl]carbamate] | 0.1 to 2 µM
5 | CC(C)(F)CNS(=O)(=O)c1cc2c(c3cnc(C4CC4)cc13)CC[C@H]2NC(=O)NCC1CC1 (single isomer, unassigned) [Example 8, 1-(cyclopropylmethyl)-3-[(7R*)-3-cyclopropyl-5-[(2-fluoro-2-methylpropyl)sulfamoyl]-8,9-dihydro-7H-cyclopenta[h]isoquinolin-7-yl]urea] | 0.1 to 2 µM
6 | CC(C)CNS(=O)(=O)c1cc2c(c3cnc(C4CC4)cc13)C(O)CC2 (stereo not drawn) [Example 62, 3-cyclopropyl-9-hydroxy-N-(2-methylpropyl)-8,9-dihydro-7H-cyclopenta[h]isoquinoline-5-sulfonamide] | 0.1 to 2 µM
7 | CCNC(=S)NC1CCc2c1cc(S(=O)(=O)NCC(C)C)c1cc(C3CC3)ncc21 (stereo not drawn) [Example 51, 1-[3-cyclopropyl-5-(2-methylpropylsulfamoyl)-8,9-dihydro-7H-cyclopenta[h]isoquinolin-7-yl]-3-ethylthiourea] | 0.1 to 2 µM
8 | Cc1ccc(N/C(=N\C#N)NC2CCc3cc(S(=O)(=O)NCC(C)C)c4cc(C5CC5)ncc4c32)cc1 (stereo not drawn) [Example 69, 2-cyano-1-[3-cyclopropyl-5-(2-methylpropylsulfamoyl)-8,9-dihydro-7H-cyclopenta[h]isoquinolin-9-yl]-3-(4-methylphenyl)guanidine] | 0.1 to 2 µM
9 | CC(C)(F)CNS(=O)(=O)c1cc2c(c3cnc(C4CC4)cc13)CCC2Nc1cccnc1 (stereo not drawn) [Example 31, 3-cyclopropyl-N-(2-fluoro-2-methylpropyl)-7-(pyridin-3-ylamino)-8,9-dihydro-7H-cyclopenta[h]isoquinoline-5-sulfonamide] | 0.01 to 0.05 µM
10 | Cn1c(NC2CCc3cc(S(=O)(=O)NCC(C)(C)F)c4cc(C5CC5)ncc4c32)nc2ccccc21 (stereo not drawn) [Example 17, 3-cyclopropyl-N-(2-fluoro-2-methylpropyl)-9-[(1-methylbenzimidazol-2-yl)amino]-8,9-dihydro-7H-cyclopenta[h]isoquinoline-5-sulfonamide] | 0.1 to 2 µM
11 | Cc1cc(-n2cnnc2NC2CCc3c2cc(S(=O)(=O)NCC(C)C)c2cc(C4CC4)ncc32)n(C)n1 (stereo not drawn) [Example 88, 3-cyclopropyl-7-[[4-(2,5-dimethylpyrazol-3-yl)-1,2,4-triazol-3-yl]amino]-N-(2-methylpropyl)-8,9-dihydro-7H-cyclopenta[h]isoquinoline-5-sulfonamide] | 0.1 to 2 µM
12 | CC(C)CNS(=O)(=O)c1cc2c(c3cnc(C4CC4)cc13)C(Nc1nncn1-c1cccnc1)CC2 (stereo not drawn) [Example 75, 3-cyclopropyl-N-(2-methylpropyl)-9-[(4-pyridin-3-yl-1,2,4-triazol-3-yl]amino]-8,9-dihydro-7H-cyclopenta[h]isoquinoline-5-sulfonamide] | 0.01 to 0.05 µM
13 | CC(C)CNS(=O)(=O)c1cc2c(c3cnc(C4CC4)cc13)C(NC(=S)Nc1cccnc1)CC2 (stereo not drawn) [Example 74, 1-[3-cyclopropyl-5-(2-methylpropylsulfamoyl)-8,9-dihydro-7H-cyclopenta[h]isoquinolin-9-yl]-3-pyridin-3-ylthiourea] | 0.1 to 2 µM
14 | CC(C)CNS(=O)(=O)c1cc2c(c3cnc(C4CC4)cc13)C(NS(=O)(=O)c1cccnc1)CC2 (stereo not drawn) [Example 15, 3-cyclopropyl-N-(2-methylpropyl)-9-(pyridin-3-ylsulfonylamino)-8,9-dihydro-7H-cyclopenta[h]isoquinoline-5-sulfonamide] | 0.1 to 2 µM
15 | CC(C)(F)CNS(=O)(=O)c1cc2c(c3cnc(C4CC4)cc13)CCC2N1CCC[C@@H](N)C1 (stereo partly drawn) [Example 57, 7-[(3R)-3-aminopiperidin-1-yl]-3-cyclopropyl-N-(2-fluoro-2-methylpropyl)-8,9-dihydro-7H-cyclopenta[h]isoquinoline-5-sulfonamide] | 0.1 to 2 µM
16 | CC(C)CNS(=O)(=O)c1cc2c(c3cnc(C4CC4)cc13)C(Nc1c(Nc3cccnc3)c(=O)c1=O)CC2 (stereo not drawn) [Example 78, 3-cyclopropyl-9-[[3,4-dioxo-2-(pyridin-3-ylamino)cyclobuten-1-yl]amino]-N-(2-methylpropyl)-8,9-dihydro-7H-cyclopenta[h]isoquinoline-5-sulfonamide] | 0.05 to 0.1 µM
17 | Cc1cc(Nc2nncn2[C@H]2CCc3c2cc(S(=O)(=O)NCC(C)(C)F)c2cc(C4CC4)ncc32)n(C)n1 (single isomer, unassigned) [Example 86, (7R*)-3-cyclopropyl-7-[3-[(2,5-dimethylpyrazol-3-yl)amino]-1,2,4-triazol-4-yl]-N-(2-fluoro-2-methylpropyl)-8,9-dihydro-7H-cyclopenta[h]isoquinoline-5-sulfonamide] | 0.05 to 0.1 µM
18 | CC(C)(F)CNS(=O)(=O)c1cc2c(c3cnc(C4CC4)cc13)CC[C@H]2n1ccnc1NCC1CC1 (single isomer, unassigned) [Example 12, (7R*)-3-cyclopropyl-7-[2-(cyclopropylmethylamino)imidazol-1-yl]-N-(2-fluoro-2-methylpropyl)-8,9-dihydro-7H-cyclopenta[h]isoquinoline-5-sulfonamide] | 0.1 to 2 µM
19 | CC(C)CNS(=O)(=O)c1cc2c(c3cnc(C4CC4)cc13)CCC2NC(=S)Nc1cccnc1 (stereo not drawn) [Example 95, 1-[3-cyclopropyl-5-(isobutylsulfamoyl)-8,9-dihydro-7H-cyclopenta[h]isoquinolin-7-yl]-3-(3-pyridyl)thiourea] | 0.01 to 0.05 µM
20 | CC(C)CNS(=O)(=O)c1cc2c(c3cnc(C4CC4)cc13)CCC2(C)O (stereo not drawn) [Example 49, 3-cyclopropyl-7-hydroxy-7-methyl-N-(2-methylpropyl)-8,9-dihydrocyclopenta[h]isoquinoline-5-sulfonamide] | 0.1 to 2 µM
21 | COc1cncc(NC2CCc3cc(S(=O)(=O)NCC(C)(C)F)c4cc(C5CC5)ncc4c32)c1 (stereo not drawn) [Example 30, 3-cyclopropyl-N-(2-fluoro-2-methylpropyl)-9-[(5-methoxypyridin-3-yl)amino]-8,9-dihydro-7H-cyclopenta[h]isoquinoline-5-sulfonamide] | 0.01 to 0.05 µM
22 | CC(C)CNS(=O)(=O)c1cc2c(c3cnc(C4CC4)cc13)[C@H](NC(=O)c1cccnc1)CC2 (single isomer, unassigned) [Example 21, N-[(9R*)-3-cyclopropyl-5-(2-methylpropylsulfamoyl)-8,9-dihydro-7H-cyclopenta[h]isoquinolin-9-yl]pyridine-3-carboxamide] | 0.01 to 0.05 µM
23 | CC(C)CNS(=O)(=O)c1cc2c(c3cnc(C4CC4)cc13)C(NS(C)(=O)=O)CC2 (stereo not drawn) [Example 70, 3-cyclopropyl-9-(methanesulfonamido)-N-(2-methylpropyl)-8,9-dihydro-7H-cyclopenta[h]isoquinoline-5-sulfonamide] | 0.1 to 2 µM
24 | COc1ccnc2c1ncn2C1CCc2c1cc(S(=O)(=O)NCC(C)(C)F)c1cc(C3CC3)ncc21 (stereo not drawn) [Example 1, 3-cyclopropyl-N-(2-fluoro-2-methylpropyl)-7-(7-methoxyimidazo[4,5-b]pyridin-3-yl)-8,9-dihydro-7H-cyclopenta[h]isoquinoline-5-sulfonamide] | 0.1 to 2 µM
25 | CC(C)(F)CNS(=O)(=O)c1cc2c(c3cnc(C4CC4)cc13)CCC2c1cccnc1F (stereo not drawn) [Example 11, 3-cyclopropyl-N-(2-fluoro-2-methylpropyl)-7-(2-fluoropyridin-3-yl)-8,9-dihydro-7H-cyclopenta[h]isoquinoline-5-sulfonamide] | 0.1 to 2 µM
26 | CC(C)CNS(=O)(=O)c1cc2c(c3cnc(C4CC4)cc13)C(=O)CC2 [Example 63, 3-cyclopropyl-N-(2-methylpropyl)-9-oxo-7,8-dihydrocyclopenta[h]isoquinoline-5-sulfonamide] | 0.1 to 2 µM
27 | Cc1cc(Nc2nncn2[C@H]2CCc3c2cc(S(=O)(=O)NCC(C)(C)F)c2cc(C4CC4)nnc32)n(C)n1 (single isomer, unassigned) [Example 25, (7R*)-3-cyclopropyl-7-[3-[(2,5-dimethylpyrazol-3-yl)amino]-1,2,4-triazol-4-yl]-N-(2-fluoro-2-methylpropyl)-8,9-dihydro-7H-cyclopenta[h]cinnoline-5-sulfonamide] | 0.05 to 0.1 µM
28 | CNC(=O)[C@H]1CCCN1[C@@H]1CCc2c1cc(S(=O)(=O)NCC(C)(C)F)c1cc(C3CC3)ncc21 (relative stereo) [Example 58, (2R)-1-[(7R*)-3-cyclopropyl-5-[(2-fluoro-2-methylpropyl)sulfamoyl]-8,9-dihydro-7H-cyclopenta[h]isoquinolin-7-yl]-N-methylpyrrolidine-2-carboxamide] | 0.1 to 2 µM
29 | Cc1cc(Nc2nncn2[C@@H]2CCc3c2cc(S(=O)(=O)NCC(C)C)c2cc(C4CC4)ncc32)n(C)n1 (single isomer, unassigned) [Example 87, (7R*)-3-cyclopropyl-7-[3-[(2,5-dimethylpyrazol-3-yl)amino]-1,2,4-triazol-4-yl]-N-(2-methylpropyl)-8,9-dihydro-7H-cyclopenta[h]isoquinoline-5-sulfonamide] | 0.01 to 0.05 µM
30 | CC(C)CNS(=O)(=O)c1cc2c(c3cnc(C4CC4)cc13)C(Nc1nncn1-c1cccc3c1nnn3C)CC2 (stereo not drawn) [Example 2, 3-cyclopropyl-N-isobutyl-9-[[4-(1-methylbenzotriazol-4-yl)-1,2,4-triazol-3-yl]amino]-8,9-dihydro-7H-cyclopenta[h]isoquinoline-5-sulfonamide] | 0.05 to 0.1 µM
